This test relates to L1210 leukemia ip in BDF1 mice, survival T/C. The test is described as follows: NCI In Vivo Anticancer Drug Screen. Data for tumor model L1210 Leukemia (intraperitoneal) in B6D2F1 (BDF1) mice. To be noted: endpoint: mean survival time, higher = longer survival. The procedure, abridged: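 Read-out is survival time, reported as the treated-group measurement over the vehicle-control measurement.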

[1] abbreviates: dose: 100.0 mg/kg/injection, schedule: Q04DX003 (ip), vehicle: saline with Tween-80.
[2] abbreviates: dose: 200.0 mg/kg/injection, schedule: Q04DX003 (ip), vehicle: saline with Tween-80.
[3] abbreviates: dose: 400.0 mg/kg/injection, schedule: Q04DX003 (ip), vehicle: saline with Tween-80.
Where [4] appears, read: dose: 100.0 mg/kg/injection, schedule: Q04DX003 (ip), vehicle: saline.
The mark [5] stands for this setting: dose: 200.0 mg/kg/injection, schedule: Q04DX003 (ip), vehicle: saline.
Setting [6] is: dose: 400.0 mg/kg/injection, schedule: Q04DX003 (ip), vehicle: saline.
[7] abbreviates: dose: 100.0 mg/kg/injection, schedule: Q04DX002 (ip), vehicle: saline with Tween-80.
The mark [8] stands for this setting: dose: 200.0 mg/kg/injection, schedule: Q04DX002 (ip), vehicle: saline with Tween-80.
[9] abbreviates: dose: 400.0 mg/kg/injection, schedule: Q04DX002 (ip), vehicle: saline with Tween-80.
[10] abbreviates: dose: 100.0 mg/kg/injection, schedule: Q01DX009 (ip), vehicle: saline with Tween-80.
The mark [11] stands for this setting: dose: 200.0 mg/kg/injection, schedule: Q01DX009 (ip), vehicle: saline with Tween-80.
Where [12] appears, read: dose: 400.0 mg/kg/injection, schedule: Q01DX009 (ip), vehicle: saline with Tween-80.

Values joined by “and” are separate entries in the source; they are usually repeats but may differ in a detail not shown here. Equal entries are not always repeated. Toxic doses and inconclusive results are not listed.

Turning to `O=NN(CCCl)C(=O)NC1CCS(=O)(=O)CC1`, the T/C is 228 % of control (dose: 6.0 mg/kg/injection, schedule: Q01DX001 (ip), vehicle: carboxymethylcellulose (CMC)); 313 % of control (dose: 7.5 mg/kg/injection, schedule: Q01DX001 (ip), vehicle: carboxymethylcellulose (CMC)); 235 % of control (dose: 8.0 mg/kg/injection, schedule: Q01DX001 (ip), vehicle: carboxymethylcellulose (CMC)); 337 % of control (dose: 11.4 mg/kg/injection, schedule: Q01DX001 (ip), vehicle: carboxymethylcellulose (CMC)); 211 % of control and 319 % of control (dose: 12.0 mg/kg/injection, schedule: Q01DX001 (ip), vehicle: carboxymethylcellulose (CMC)); 337 % of control (dose: 17.0 mg/kg/injection, schedule: Q01DX001 (ip), vehicle: carboxymethylcellulose (CMC)). Further, the T/C is, setting by setting: (dose: 18.0 mg/kg/injection, schedule: Q01DX001 (ip), vehicle: carboxymethylcellulose (CMC)) 319 % of control; (dose: 37.0 mg/kg/injection, schedule: Q01DX001 (ip), vehicle: carboxymethylcellulose (CMC)) 93 % of control and 105 % of control.

As to `ClCC(Cl)C1CCC(Cl)C(Cl)C1` (configuration not stated), the T/C (dose: 50.0 mg/kg/injection, schedule: Q01DX009 (ip), vehicle: other) was 95 % of control; the T/C (dose: 100.0 mg/kg/injection, schedule: Q01DX009 (ip), vehicle: other) is 90 % of control; the T/C (dose: 200.0 mg/kg/injection, schedule: Q01DX009 (ip), vehicle: other) is 90 % of control.

Take `CCOC(=O)CC1(C)OCC(c2ccccc2)O1` (configuration not stated): the T/C is 106 % of control (dose: 222.0 mg/kg/injection, schedule: Q01DX Z (ip), vehicle: saline); 86 % of control (dose: 333.0 mg/kg/injection, schedule: Q01DX Z (ip), vehicle: saline); 91 % of control (dose: 500.0 mg/kg/injection, schedule: Q01DX Z (ip), vehicle: saline).

Turning to `CCCCN(CCCC)CC(O)c1cc(OC)c2cc(Cl)cc(Cl)c2n1` (configuration not stated), the T/C is 98 % of control under setting [1], 91 % of control under setting [2] and 94 % of control under setting [3].

`O=C(N/N=C/c1ccccc1)c1ccc(Cl)c(Cl)c1`: the T/C (dose: 100.0 mg/kg/injection, schedule: Q04DX003 (ip), vehicle: other) is 100 % of control; the T/C (dose: 200.0 mg/kg/injection, schedule: Q04DX003 (ip), vehicle: other) was 92 % of control; the T/C (dose: 400.0 mg/kg/injection, schedule: Q04DX003 (ip), vehicle: other) is 89 % of control.

As to `Clc1ccccc1/C=C/C=C1c2ccccc2-c2ccccc21`, the T/C by setting is: under setting [4], 98 % of control and 90 % of control; under setting [5], 98 % of control; under setting [6], 105 % of control and 92 % of control.

Regarding `CN=C(N)Nc1ccc(NC(=O)c2ccc(C(=O)Nc3ccc(NC(N)=NC)cc3)cc2)cc1`, the T/C by setting is: (dose: 0.25 mg/kg/injection, schedule: Q01DX015 (ip), vehicle: methylcellulose (MC)) 113 % of control; (dose: 0.25 mg/kg/injection, schedule: Q01DX Z (ip), vehicle: carboxymethylcellulose (CMC)) 107 % of control; (dose: 0.5 mg/kg/injection, schedule: Q01DX015 (ip), vehicle: methylcellulose (MC)) 110 % of control; (dose: 0.5 mg/kg/injection, schedule: Q01DX Z (ip), vehicle: carboxymethylcellulose (CMC)) 123 % of control; (dose: 1.0 mg/kg/injection, schedule: Q01DX Z (ip), vehicle: carboxymethylcellulose (CMC)) 156 % of control; (dose: 2.0 mg/kg/injection, schedule: Q01DX015 (ip), vehicle: methylcellulose (MC)) 236 % of control. Moreover, the T/C reads like this: (dose: 2.0 mg/kg/injection, schedule: Q01DX Z (ip), vehicle: carboxymethylcellulose (CMC)) 231 % of control and 254 % of control; (dose: 4.0 mg/kg/injection, schedule: Q01DX015 (ip), vehicle: methylcellulose (MC)) 228 % of control; (dose: 4.0 mg/kg/injection, schedule: Q01DX Z (ip), vehicle: carboxymethylcellulose (CMC)) 211 % of control; (dose: 16.0 mg/kg/injection, schedule: Q01DX015 (ip), vehicle: methylcellulose (MC)) 93 % of control; (dose: 17.0 mg/kg/injection, schedule: Q01DX Z (ip), vehicle: carboxymethylcellulose (CMC)) 100 % of control; (dose: 30.0 mg/kg/injection, schedule: Q01DX001 (ip), vehicle: methylcellulose (MC)) 163 % of control and 211 % of control. The T/C runs as follows: (dose: 62.0 mg/kg/injection, schedule: Q01DX Z (oral), vehicle: carboxymethylcellulose (CMC)) 98 % of control; (dose: 125.0 mg/kg/injection, schedule: Q01DX Z (oral), vehicle: carboxymethylcellulose (CMC)) 101 % of control; (dose: 250.0 mg/kg/injection, schedule: Q01DX Z (oral), vehicle: carboxymethylcellulose (CMC)) 105 % of control; (dose: 500.0 mg/kg/injection, schedule: Q01DX Z (oral), vehicle: carboxymethylcellulose (CMC)) 105 % of control.

`CC(=O)N(C(=O)c1ccccc1)c1ccc(NS(=O)(=O)c2ccc(C)cc2)cc1`: the T/C (dose: 100.0 mg/kg/injection, schedule: Q01DX001 (ip), vehicle: Klucel (hydroxypropylcellulose) (HPC)) was 91 % of control; the T/C (dose: 100.0 mg/kg/injection, schedule: Q04DX003 (ip), vehicle: Klucel (hydroxypropylcellulose) (HPC)) was 94 % of control; the T/C (dose: 200.0 mg/kg/injection, schedule: Q01DX001 (ip), vehicle: Klucel (hydroxypropylcellulose) (HPC)) was 100 % of control; the T/C (dose: 400.0 mg/kg/injection, schedule: Q01DX001 (ip), vehicle: Klucel (hydroxypropylcellulose) (HPC)) was 100 % of control; the T/C (dose: 400.0 mg/kg/injection, schedule: Q04DX003 (ip), vehicle: Klucel (hydroxypropylcellulose) (HPC)) is 90 % of control.

Take `O=C1NC(c2ccccc2)(c2ccccc2)C(O)N1CCO` (configuration not stated): the T/C under setting [1] was 101 % of control, the T/C under setting [2] was 101 % of control and the T/C under setting [3] is 98 % of control.

Turning to `Cc1ccc(NC(=S)Nc2ccc(Cc3ccc(NC(=S)Nc4ccc(C)cc4)cc3)cc2)cc1`, the T/C by setting is: under setting [7], 98 % of control; under setting [8], 103 % of control; under setting [9], 88 % of control.

For `CC(C)C1=CC23CCC4C(C)(C(=O)O)CCCC4(C)C2CC1OO3` (configuration not stated), the T/C is 100 % of control under setting [10], 97 % of control under setting [11] and 97 % of control under setting [12].

`CCC1(c2ccccc2)C(=O)NC(=O)N(Cc2ccccc2)C1=O` (configuration not stated): the T/C reads like this: under setting [10], 109 % of control; under setting [7], 89 % of control; under setting [11], 98 % of control; under setting [8], 95 % of control; under setting [12], 98 % of control; under setting [9], 103 % of control.

With `CCOC(=O)C(C(=O)OCC)C(CC(=O)C1CC1)c1ccccc1` (configuration not stated), the T/C (dose: 50.0 mg/kg/injection, schedule: Q01DX001 (ip), vehicle: carboxymethylcellulose (CMC)) is 92 % of control; the T/C (dose: 100.0 mg/kg/injection, schedule: Q01DX001 (ip), vehicle: carboxymethylcellulose (CMC)) was 95 % of control; the T/C (dose: 100.0 mg/kg/injection, schedule: Q04DX002 (ip), vehicle: Klucel (hydroxypropylcellulose) (HPC)) was 97 % of control; the T/C (dose: 200.0 mg/kg/injection, schedule: Q01DX001 (ip), vehicle: carboxymethylcellulose (CMC)) was 92 % of control; the T/C (dose: 200.0 mg/kg/injection, schedule: Q04DX002 (ip), vehicle: Klucel (hydroxypropylcellulose) (HPC)) is 101 % of control; the T/C (dose: 400.0 mg/kg/injection, schedule: Q01DX001 (ip), vehicle: carboxymethylcellulose (CMC)) is 95 % of control. Further, the T/C (dose: 400.0 mg/kg/injection, schedule: Q04DX002 (ip), vehicle: Klucel (hydroxypropylcellulose) (HPC)) is 111 % of control.

In the case of `COC1CC(OC(=O)c2ccc(C)cc2)C(COC(=O)c2ccc(C)cc2)O1` (configuration not stated), the T/C was 98 % of control under setting [4], 102 % of control under setting [5] and 98 % of control under setting [6].

Turning to `CN(C)[C@@H]1C(=O)C(C(=O)NCNC2(C(=O)O)CCCC2)=C(O)[C@@]2(O)C(=O)C3=C(O)c4c(O)cccc4[C@@](C)(O)[C@H]3C[C@@H]12`, the T/C by setting is: (dose: 62.0 mg/kg/injection, schedule: Q01DX Z (ip), vehicle: saline) 95 % of control; (dose: 125.0 mg/kg/injection, schedule: Q01DX Z (ip), vehicle: saline) 98 % of control; (dose: 250.0 mg/kg/injection, schedule: Q01DX Z (ip), vehicle: saline) 114 % of control.

The values above are taken from PubChem BioAssay AID248 (DTP/NCI, 2004).
